Data reported in patent publication US20210318306A1, “Compositions for and Methods of Neutralizing Lipopolysaccharide Toxicity and Methods of Identifying the Same” (priority 2020, published 2021).
Where “and” joins values, the source holds several entries; their conditions need not be identical. Equal entries are not always repeated. Entries after “also recorded” stand apart in the source; their conditions may differ.

Legend:
Assay type in all cases: cell-based, human
HEK-Blue hTLR4 cells [1] = assay: IL-8 in HEK-Blue hTLR4 cell supernatants with standard P.g. LPS and simple solutions at 1 mM vs 10 mM total zinc (Example 4); conditions: for IL-8 Concentration, replicate: listed as ZnCitrate
Procedure: (§1) HEK-Blue hTLR4 cells (Invivogen, cat #hkb-htlr4) were cultured in a DMEM culture medium supplemented with 10% FBS and 1% penstrep at 37° C. with 5% CO2. LPS from Porphyromonas gingivalis (P.g. LPS; Invivogen, cat #tlrl-pglps and cat #tlrl-ppglps) activates TLR4 receptor and downstream inflammation in HEK-Blue hTLR4 cells. P.g. LPS is co-incubated with HEK-Blue hTLR4 cells in the absence or presence of the simple solutions. Standard and ultrapure P.g. LPS were both used due to ultrapure being a specific ligand for the TLR4 receptor while standard LPS is a ligand for both TLR2 and TLR4.
(§2) The simple solutions a) Zinc Oxide (ZnO), b) Zinc Citrate (ZnCitrate), c) Zinc Oxide+Zinc Citrate (Dual Zinc; DZ), d) Dual Zinc+Arginine (DZA, zinc oxide, zinc citrate and arginine), and e) L-Arginine (Arg) were diluted at different concentrations with culture medium.
1) experiments using 1 mM vs 10 mM total zinc; and
(§3) HEK-Blue hTLR4 cells were plated in 96-well plates and grown until confluent at 37° C. and 5% CO2 in HEK-blue selection media (DMEM with 10% FBS, 1% penicillin-streptomycin, and antibiotics for HEK-blue selection (Invivogen, cat #hb-sel)). Cells were co-incubated overnight with varying concentrations of different zinc actives as well as arginine and stimulated with either 0.1 μg/mL standard P. gingivalis LPS or 1 μg/mL ultrapure P. gingivalis LPS. Cell supernatants were collected for human inflammation cytokine panels using Multiplex and ELISA analysis.
(§4) Multiplex analysis was performed using the MILLIPLEX MAP Human Cytokine/Chemokine Magnetic Bead Panel—Immunology Multiplex Assay for IL-1, IL-6, IL-8, TNFα, and GM-CSF (Millipore Sigma, cat #HCYTOMAG-60K).
Testing was performed using total zinc concentrations to normalize the amount the zinc applied in the cell culture medium during co-incubation. Two concentrations of total zinc ion are based on the potential amount of zinc retained on the mouth soft tissue surface.

HEK-Blue hTLR4 cells [2] = assay: IL-8 dose response in HEK-Blue hTLR4 cells with P.g. LPS 1 μg/ml and 3X-24X dilutions of simple solutions (Example 4)
Procedure: as §1, §2
2) experiments using 3×, 6×, 12×, and 24× dilution fold of the simple solutions (see Table 6 below).
as §3, §4
In order to understand the role of Arginine in the inhibition of LPS induced inflammation, a dose response experiment was performed using ultrapure P.g. LPS, which only specifically targets TLR4 receptor, in order to maximize the activation of NF-kB and expression of IL-8.
The testing samples were prepared as the stock simple solutions. […] The first serial dilution was made 3 times with water, a dilution factor simulating dilution of toothpastes while brushing. Additional serial dilutions were made by 2-fold of the first dilution to study dose response effect.

HEK-TLR4 cells = assay: P. gingivalis LPS-induced cytokine secretion by HEK-TLR4 cells, Luminex 5-plex magnetic bead panel (Example 2)
Procedure: Commercially available HEK-Blue TLR4 cells (Invitrogen) are recombinant HEK 293 cells that have been transformed with DNA that encodes TLR4 that is expressed and present on the cell surface. HEK-Blue TLR4 cells are grown ion culture and used can be used in experimental assays to identify test compositions that modulate inflammation pathways stimulated by TLR4-LPS interaction.
Initial for LPS and zinc-containing starting solutions were made as follows. An LPS starting solution was prepared as follows: a […] solution of LPS was prepared using 2 μl of 1 mg/ml LPS and 10 ml media. Multiple zinc starting solutions were each prepared using media as diluent: a) 20 mM zinc oxide, b) 2 mM zinc oxide, c) 20 mM zinc citrate, d) 2 mM zinc citrate, e) 20 mM of a composition containing a 2:1 mixture of zinc oxide and zinc citrate and f) 2 mM of a composition containing a 2:1 mixture of zinc oxide and zinc citrate. The starting solutions were used to prepare various test samples.
In some embodiments, control assays include “Untreated”, in which eight Zinc test samples without LPS were made: […], 10 mM zinc oxide+zinc citrate, 1 mM zinc oxide+zinc citrate, 10 mM zinc oxide+zinc citrate+arginine and 1 mM zinc oxide+zinc citrate+arginine, The test samples without LPS were prepared by diluting the zinc starting solutions with equal parts media. Eight test samples with LPS were made: […], […], […], […], 10 mM zinc oxide+zinc citrate LPS, 1 mM zinc oxide+zinc citrate LPS, 10 mM zinc oxide+zinc citrate+arginine LPS and 1 mM zinc oxide+zinc citrate+arginine LPS. The test samples with LPS were prepared by diluting the zinc starting solutions with equal parts LPS starting solution.
Cells were grown to 70-80% confluent in a 96 well plate. 100 uL of a test sample was added to a well. Cells with test sample were incubated overnight. Media was collected from each well and transferred to a corresponding well in a 96-well plate. Assays to measure proinflammatory cytokines including IL-8 secretion were performed for each well.
Inflammation markers in supernatants collected from HEK-Blue cells co-incubated with Zinc and Zinc+LPS were quantified using Luminex Magpix instrument (MAGPIX-XPON42) and human 5-plex cytokine/chemokine Magnetic bead panel (Millipore HCYTOMAG-60K). The human 5-plex cytokine/chemokine Magnetic bead panel quantifies TNF-α, IL-6, IL-8, IL-1β and GM-CSF.
The Luminex Kit Procedure outlined in the instruction manual for each separate Luminex kit was performed on the supernatants collected from the HEK-Blue cells co-incubated with Zinc test solutions without LPS and Zinc test solutions plus LPS. Quality controls in range for the specified analytes were performed to ensure levels were within the acceptable range.
To run the Luminex Test, all necessary calibration and verification procedures as outlined by the MagPix and xPonent softwares were completed and the appropriate protocol for the assay was selected. The standards were verified to be correct and complete the plate layout of samples was verified. […] The “Avg. Result” was identified in the results generated.
Experiments were conducted to identify compositions that inhibit P. gingivalis LPS-induced IL-8, TNFα, GM-CSF, IL-1β and IL-6 by HEK-TLR4 cells. HEK-TLR4 cells in 96 well plates were contacted with 100 μl samples. IL-8, TNFα, GM-CSF, IL-1β and IL-6 were detected as described above.

[3] = 1 mM total zinc with standard P.g. LPS (0.1 μg/ml)
[4] = 10 mM total zinc with standard P.g. LPS (0.1 μg/ml)
[5] = 3X dilution of stock simple solution (Table 6) with P.g. LPS (1 μg/ml)
[6] = 6X dilution of stock simple solution (Table 6) with P.g. LPS (1 μg/ml)
[7] = 12X dilution of stock simple solution (Table 6) with P.g. LPS (1 μg/ml)
[8] = 24X dilution of stock simple solution (Table 6) with P.g. LPS (1 μg/ml)
[9] = 300 ppm with 0.1μ/ml P. gingivalis LPS
[10] = 600 ppm with 0.1μ/ml P. gingivalis LPS
[11] = P. gingivalis LPS, 300 and 600 ppm, listed as zinc citrate

O=C([O-])CC(O)(CC(=O)[O-])C(=O)[O-].O=C([O-])CC(O)(CC(=O)[O-])C(=O)[O-].[Zn+2].[Zn+2].[Zn+2] [ZnC, zinc citrate]
IL-8 Concentration, Average (HEK-Blue hTLR4 cells [1]; [3]): 34.9 pg/mL
IL-8 Concentration, replicate (HEK-Blue hTLR4 cells [1]; [3]): 55.35 pg/mL and 27.95 pg/mL and 26.65 pg/mL and 29.55 pg/mL
IL-8 Concentration, Average (HEK-Blue hTLR4 cells [1]; [4]): 10.6 pg/mL
IL-8 Concentration, replicate (HEK-Blue hTLR4 cells [1]; [4]): 11.85 pg/ml (2×) and 3.15 pg/ml
IL-8 induced by co-incubation with P.g. LPS (in words) (HEK-Blue hTLR4 cells [1]; at both 1 mM and 10 mM): reduced
IL-8 Concentration, Average (HEK-Blue hTLR4 cells [2]; [5]): 32.1 pg/mL
IL-8 Concentration, replicate (HEK-Blue hTLR4 cells [2]; 3X dilution of stock simple solution (Table 6) with P.g. LPS (1 μg/ml), listed as ZnCitrate): 35.4 pg/mL and 28.9 pg/mL
IL-8 Concentration, Average (HEK-Blue hTLR4 cells [2]; [6]): 38.0 pg/mL
IL-8 Concentration, replicate (HEK-Blue hTLR4 cells [2]; 6X dilution of stock simple solution (Table 6) with P.g. LPS (1 μg/ml), listed as ZnCitrate): 38.1 pg/mL and 37.9 pg/mL
IL-8 Concentration, Average (HEK-Blue hTLR4 cells [2]; [7]): 51.9 pg/mL
IL-8 Concentration, replicate (HEK-Blue hTLR4 cells [2]; 12X dilution of stock simple solution (Table 6) with P.g. LPS (1 μg/ml), listed as ZnCitrate): 55.6 pg/mL and 48.1 pg/mL
IL-8 Concentration, Average (HEK-Blue hTLR4 cells [2]; [8]): 86.6 pg/mL
IL-8 Concentration, replicate (HEK-Blue hTLR4 cells [2]; 24X dilution of stock simple solution (Table 6) with P.g. LPS (1 μg/ml), listed as ZnCitrate): 88.5 pg/mL and 84.8 pg/mL
GM-CSF (raw data, single replicate) (HEK-TLR4 cells; [9]): <3.2 pg/ml (3×) and 0.633 pg/ml
IL-1β (raw data, single replicate) (HEK-TLR4 cells; [9]): 0.4044 pg/mL and 0.5186 pg/mL and 0.1227 pg/mL and 1.331 pg/mL
IL-6 (raw data, single replicate) (HEK-TLR4 cells; [9]): <3.2 pg/ml (3×) and 0.5932 pg/ml
IL-8 (average result) (HEK-TLR4 cells; [9]): 395.2 pg/mL
IL-8 (raw data, single replicate) (HEK-TLR4 cells; [9]): 364.5 pg/mL and 386.8 pg/mL and 285.4 pg/mL and 544.1 pg/mL
TNF-α (average result) (HEK-TLR4 cells; [9]): 3.857 pg/mL
TNFα (raw data, single replicate) (HEK-TLR4 cells; [9]): 3.113 pg/mL and 2.696 pg/mL and 2.325 pg/mL and 7.294 pg/mL
GM-CSF (raw data, single replicate) (HEK-TLR4 cells; 300 ppm, without LPS): <3.2 pg/mL
IL-1β (raw data, single replicate) (HEK-TLR4 cells; 300 ppm, without LPS): 0.01381 pg/mL and 0.1227 pg/mL and 0.2344 pg/mL and 0.4044 pg/mL
IL-6 (raw data, single replicate) (HEK-TLR4 cells; 300 ppm, without LPS): <3.2 pg/mL
IL-8 (average result) (HEK-TLR4 cells; 300 ppm, without LPS): 294 pg/mL
IL-8 (raw data, single replicate) (HEK-TLR4 cells; 300 ppm, without LPS): 254.6 pg/mL and 237.5 pg/mL and 296.9 pg/mL and 386.9 pg/mL
TNF-α (average result) (HEK-TLR4 cells; 300 ppm, without LPS): 1.616 pg/mL
TNFα (raw data, single replicate) (HEK-TLR4 cells; 300 ppm, without LPS): 1.244 pg/mL and 1.675 pg/mL and 1.373 pg/mL and 2.173 pg/mL
GM-CSF (raw data, single replicate) (HEK-TLR4 cells; [10]): <3.2 pg/mL
IL-1β (raw data, single replicate) (HEK-TLR4 cells; [10]): 0.6335 pg/ml and 0.1227 pg/ml (2×) and 0.2344 pg/ml
IL-6 (raw data, single replicate) (HEK-TLR4 cells; [10]): <3.2 pg/mL
IL-8 (average result) (HEK-TLR4 cells; [10]): 326.3 pg/mL
IL-8 (raw data, single replicate) (HEK-TLR4 cells; [10]): 447.3 pg/mL and 287.8 pg/mL and 291.5 pg/mL and 278.6 pg/mL
TNF-α (average result) (HEK-TLR4 cells; [10]): 1.596 pg/mL
TNFα (raw data, single replicate) (HEK-TLR4 cells; [10]): 2.587 pg/mL and 1.416 pg/mL and 1.266 pg/mL and 1.116 pg/mL
GM-CSF (raw data, single replicate) (HEK-TLR4 cells; 600 ppm, without LPS): 0.1483 pg/ml and 0.07253 pg/ml and <3.2 pg/ml (2×)
IL-1β (raw data, single replicate) (HEK-TLR4 cells; 600 ppm, without LPS): 0.9228 pg/mL and 0.2908 pg/mL and 0.01381 pg/mL and 0.1227 pg/mL
IL-6 (raw data, single replicate) (HEK-TLR4 cells; 600 ppm, without LPS): 0.3248 pg/ml and <3.2 pg/ml (3×)
IL-8 (average result) (HEK-TLR4 cells; 600 ppm, without LPS): 293.9 pg/mL
IL-8 (raw data, single replicate) (HEK-TLR4 cells; 600 ppm, without LPS): 434.5 pg/mL and 262.1 pg/mL and 234.6 pg/mL and 244.6 pg/mL
TNF-α (average result) (HEK-TLR4 cells; 600 ppm, without LPS): 1.172 pg/mL
TNFα (raw data, single replicate) (HEK-TLR4 cells; 600 ppm, without LPS): 2.064 pg/mL and 1.073 pg/mL and 0.6069 pg/mL and 0.9454 pg/mL
effect on LPS-induced TNFα (in words) (HEK-TLR4 cells; P. gingivalis LPS, 300 and 600 ppm, listed as Zinc citrate): more profound inhibition
effect on LPS-induced TNFα (in words) (HEK-TLR4 cells; [11]): significantly reduced
effect on induction of IL-8 by LPS (in words) (HEK-TLR4 cells; [11]): significantly reduced; also recorded: profound inhibition

N=C(N)NCCC[C@H](N)C(=O)O [Arg, L-Arginine]
IL-8 Concentration, Average (HEK-Blue hTLR4 cells [2]; [5]): 236.6 pg/mL
IL-8 Concentration, replicate (HEK-Blue hTLR4 cells [2]; [5]): 248.5 pg/mL and 224.7 pg/mL
IL-8 Concentration, Average (HEK-Blue hTLR4 cells [2]; [6]): 1480.7 pg/mL
IL-8 Concentration, replicate (HEK-Blue hTLR4 cells [2]; [6]): 1649.9 pg/mL and 1311.5 pg/mL
IL-8 Concentration, Average (HEK-Blue hTLR4 cells [2]; [7]): 2903.3 pg/mL
IL-8 Concentration, replicate (HEK-Blue hTLR4 cells [2]; [7]): 2891.2 pg/mL and 2915.5 pg/mL
IL-8 Concentration, Average (HEK-Blue hTLR4 cells [2]; [8]): 3020.6 pg/mL
IL-8 Concentration, replicate (HEK-Blue hTLR4 cells [2]; [8]): 3003.8 pg/mL and 3037.4 pg/mL
inhibition of IL-8 (in words) (HEK-Blue hTLR4 cells [2]; at 3 times dilution of the stock simple solution): strong inhibition
inhibition of IL-8 (in words) (HEK-Blue hTLR4 cells [2]; when dilution folds increase): lose the inhibition of IL-8 gradually
